Data published in the Kinase Knowledgebase extract (Sharma et al. 2016).

Key:
ROCK2 = ROCK2 (UniProt O75116); experiment: Inhibition of ROCK2 Kinase Activity; conditions: for inhibition: concentration not given here
EGFR = EGFR (UniProt P00533); conditions: concentration not given here
CDK2 = CDK2 (UniProt P24941); experiment: Enzyme Assay; conditions: for inhibition: concentration not given here
MAPK14 = MAPK14 (UniProt Q16539); experiment: Inhibition of MAPK14 Kinase Activity; conditions: concentration not given here
Sequence of MAPK14 (Q16539 whole entry, looked up): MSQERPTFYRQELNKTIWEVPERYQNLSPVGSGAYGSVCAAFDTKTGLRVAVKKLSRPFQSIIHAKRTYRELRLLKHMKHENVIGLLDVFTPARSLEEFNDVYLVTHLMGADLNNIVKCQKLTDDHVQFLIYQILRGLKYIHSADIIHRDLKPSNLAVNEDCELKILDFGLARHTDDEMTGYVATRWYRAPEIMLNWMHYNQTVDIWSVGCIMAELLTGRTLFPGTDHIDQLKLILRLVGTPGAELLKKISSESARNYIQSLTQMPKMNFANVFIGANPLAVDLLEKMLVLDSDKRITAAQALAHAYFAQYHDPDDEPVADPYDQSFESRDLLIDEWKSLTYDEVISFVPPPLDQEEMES

Sequence of EGFR (P00533 whole entry, looked up): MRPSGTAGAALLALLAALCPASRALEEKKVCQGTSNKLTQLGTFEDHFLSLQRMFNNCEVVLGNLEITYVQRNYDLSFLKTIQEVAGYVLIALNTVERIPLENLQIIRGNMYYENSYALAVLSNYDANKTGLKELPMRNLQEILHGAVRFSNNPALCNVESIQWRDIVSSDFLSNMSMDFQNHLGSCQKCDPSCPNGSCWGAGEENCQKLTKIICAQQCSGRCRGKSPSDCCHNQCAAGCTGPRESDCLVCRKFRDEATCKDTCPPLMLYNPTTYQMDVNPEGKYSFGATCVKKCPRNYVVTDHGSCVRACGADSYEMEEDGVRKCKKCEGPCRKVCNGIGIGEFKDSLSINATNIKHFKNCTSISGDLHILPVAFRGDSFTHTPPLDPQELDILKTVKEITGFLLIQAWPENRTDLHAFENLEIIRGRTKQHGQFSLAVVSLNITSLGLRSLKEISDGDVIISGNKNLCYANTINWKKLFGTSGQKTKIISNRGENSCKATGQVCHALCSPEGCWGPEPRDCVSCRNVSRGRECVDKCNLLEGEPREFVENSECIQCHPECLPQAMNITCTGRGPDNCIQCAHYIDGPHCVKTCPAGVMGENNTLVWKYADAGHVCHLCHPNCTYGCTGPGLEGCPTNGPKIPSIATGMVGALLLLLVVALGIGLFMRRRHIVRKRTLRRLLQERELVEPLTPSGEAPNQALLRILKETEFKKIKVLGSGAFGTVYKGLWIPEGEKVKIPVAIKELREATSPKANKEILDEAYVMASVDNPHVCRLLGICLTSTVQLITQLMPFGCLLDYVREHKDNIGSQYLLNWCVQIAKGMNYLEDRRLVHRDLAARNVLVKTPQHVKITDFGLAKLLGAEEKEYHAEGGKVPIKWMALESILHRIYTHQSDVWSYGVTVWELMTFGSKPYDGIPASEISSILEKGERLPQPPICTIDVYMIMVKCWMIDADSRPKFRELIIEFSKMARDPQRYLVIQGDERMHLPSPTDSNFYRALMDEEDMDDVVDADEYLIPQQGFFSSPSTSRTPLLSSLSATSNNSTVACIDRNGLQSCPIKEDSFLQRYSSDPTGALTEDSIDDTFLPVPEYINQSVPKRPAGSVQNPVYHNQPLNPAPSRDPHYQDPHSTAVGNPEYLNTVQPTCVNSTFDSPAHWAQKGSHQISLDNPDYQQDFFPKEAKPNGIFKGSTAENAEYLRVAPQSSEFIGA
Sequence of ROCK2 (O75116 whole entry, looked up): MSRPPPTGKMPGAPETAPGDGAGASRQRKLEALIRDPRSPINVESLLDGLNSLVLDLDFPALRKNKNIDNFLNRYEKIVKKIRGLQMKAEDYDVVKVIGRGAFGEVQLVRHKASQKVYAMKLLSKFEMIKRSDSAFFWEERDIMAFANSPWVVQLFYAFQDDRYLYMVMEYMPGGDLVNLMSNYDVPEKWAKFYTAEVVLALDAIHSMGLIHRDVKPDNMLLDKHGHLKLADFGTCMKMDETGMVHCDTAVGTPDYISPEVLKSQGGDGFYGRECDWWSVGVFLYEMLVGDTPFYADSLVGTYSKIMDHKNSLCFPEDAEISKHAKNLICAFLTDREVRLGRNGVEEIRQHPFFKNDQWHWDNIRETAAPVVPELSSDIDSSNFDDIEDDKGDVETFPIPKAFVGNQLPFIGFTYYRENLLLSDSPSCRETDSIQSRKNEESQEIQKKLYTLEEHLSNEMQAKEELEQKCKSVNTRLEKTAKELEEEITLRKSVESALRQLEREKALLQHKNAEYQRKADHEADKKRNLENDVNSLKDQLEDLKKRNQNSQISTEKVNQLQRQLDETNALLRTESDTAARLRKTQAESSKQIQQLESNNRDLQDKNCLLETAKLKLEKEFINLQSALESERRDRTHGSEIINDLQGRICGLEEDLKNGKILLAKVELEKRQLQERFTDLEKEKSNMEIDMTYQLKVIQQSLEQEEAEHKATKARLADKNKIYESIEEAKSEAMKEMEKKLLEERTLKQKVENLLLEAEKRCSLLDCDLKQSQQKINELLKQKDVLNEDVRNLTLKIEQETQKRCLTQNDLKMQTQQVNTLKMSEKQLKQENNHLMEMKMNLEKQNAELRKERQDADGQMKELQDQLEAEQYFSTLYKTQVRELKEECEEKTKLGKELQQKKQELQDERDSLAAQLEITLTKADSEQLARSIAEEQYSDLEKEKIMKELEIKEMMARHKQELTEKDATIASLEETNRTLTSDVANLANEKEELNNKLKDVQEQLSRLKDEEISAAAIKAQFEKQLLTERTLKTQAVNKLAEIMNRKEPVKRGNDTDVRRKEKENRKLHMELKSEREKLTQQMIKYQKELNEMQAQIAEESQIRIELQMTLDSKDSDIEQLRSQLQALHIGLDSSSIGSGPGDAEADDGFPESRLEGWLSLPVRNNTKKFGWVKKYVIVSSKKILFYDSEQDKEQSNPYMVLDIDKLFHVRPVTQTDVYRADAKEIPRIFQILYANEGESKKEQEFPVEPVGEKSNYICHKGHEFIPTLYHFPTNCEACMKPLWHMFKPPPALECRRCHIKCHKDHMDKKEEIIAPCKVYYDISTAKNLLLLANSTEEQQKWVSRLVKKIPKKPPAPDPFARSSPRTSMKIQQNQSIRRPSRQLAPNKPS

| Compound | inhibition (ROCK2) [%] | inhibition (EGFR) [%] | other results |
| --- | --- | --- | --- |
| CN(Cc1cccc(O)c1)c1cncc(-c2cccc(O)c2)c1 | 50 to 90 | – | – |
| OCc1cccc(-c2cncc(NCc3cccc(O)c3)c2)c1 | – | 50 to 90 | – |
| O=C(NCCO)c1cccc(-c2cncc(NCc3cccc(O)c3)c2)c1 | – | 50 to 90 | – |
| Oc1ccc(-c2cncc(NCc3ccc4c(c3)OCO4)c2)cc1 | 50 to 90 | – | – |
| Oc1cccc(CNc2cncc(Cc3cccc(O)c3)c2)c1 | 50 to 90 | – | inhibition (CDK2): > 90% |
| OCc1ccc(-c2cncc(NCc3cccc(O)c3)c2)cc1 | 50 to 90 | 50 to 90 | – |
| CC(=O)Nc1cccc(-c2cncc(NCc3cccc(O)c3)c2)c1 | – | 50 to 90 | inhibition (MAPK14): 50 to 90% |
| Oc1cccc(CNc2cncc(-c3cccc(O)c3F)c2)c1 | – | 50 to 90 | – |
| Oc1ccc(-c2cncc(NCc3ccc(F)c(F)c3)c2)cc1 | 50 to 90 | – | – |
| O=C(Nc1cncc(-c2cccc(O)c2)c1)c1cccc(O)c1 | – | > 90 | – |
| Oc1cccc(CNc2cncc(-c3ccc(N4CCOCC4)cc3)c2)c1 | – | 50 to 90 | – |
| O=C(O)c1cccc(-c2cncc(NCc3cccc(O)c3)c2)c1 | – | 50 to 90 | – |
| CC(=O)Nc1cccc(-c2cncc(Nc3ccccc3F)c2)c1 | – | 50 to 90 | – |
| CC(=O)Nc1cccc(-c2cncc(Nc3ccc(F)cc3)c2)c1 | – | 50 to 90 | – |
| Oc1cccc(CCNc2cncc(-c3cccc(O)c3)c2)c1 | – | > 90 | – |
| Oc1cccc(CNc2cncc(-c3cccnc3)c2)c1 | – | 50 to 90 | – |
| CS(=O)(=O)Nc1cccc(-c2cncc(NCc3cccc(O)c3)c2)c1 | – | 50 to 90 | – |
| CN(C)CCNC(=O)c1cccc(-c2cncc(NCc3cccc(O)c3)c2)c1 | – | 50 to 90 | – |
| Oc1cccc(CNc2cncc(-c3ccccc3)c2)c1 | – | 50 to 90 | – |

Now from value to molecule, other results behind:

| inhibition (ROCK2) [%] | inhibition (EGFR) [%] | Compound | other results |
| --- | --- | --- | --- |
| 50 to 90 | 50 to 90 | Oc1cccc(CNc2cncc(-c3cccc(O)c3)c2)c1 | – |
| – | 50 to 90 | NC(=O)c1cccc(-c2cncc(NCc3cccc(O)c3)c2)c1 | IC50 (ROCK2): < 1000 nM |
| 50 to 90 | – | COC(=O)c1cccc(-c2cncc(NCc3cccc(O)c3)c2)c1 | inhibition (CDK2): > 90% |
| – | 50 to 90 | COc1cccc(-c2cncc(NCc3cccc(O)c3)c2)c1F | – |
| 50 to 90 | 50 to 90 | COc1cccc(-c2cncc(NCc3cccc(O)c3)c2)c1 | IC50 (CDK2): < 1000 nM |
| – | 50 to 90 | Nc1cccc(-c2cncc(NCc3cccc(O)c3)c2)c1 | – |
| – | 50 to 90 | Oc1ccc(-c2cncc(NCc3cccc(O)c3)c2)cc1 | IC50 (ROCK2): < 1000 nM; inhibition (CDK2): > 90% |
| – | 50 to 90 | COC(=O)c1cccc(CNc2cncc(-c3cccc(O)c3)c2)c1 | – |
| 50 to 90 | 50 to 90 | Cc1ccc(CNc2cncc(-c3cccc(O)c3)c2)cc1O | – |
| – | 50 to 90 | COc1ccc(-c2cncc(NCc3cccc(O)c3)c2)cc1OC | – |
